# Laboratory results reported in publication PMC6925260 (Nature Communications, 2019).
# Numbering of substitutions follows the chain as printed. Read-outs that look alike come from different tables or passages of the source.
# Assays:
# Type in all cases: binding
# [1] = target: T1, PPARγ LBD (wt) / MED1 LxxLL peptide (Homo sapiens, UniProt P37231); experiment: Fluorescence anisotropy, MED1 peptide to wt PPARγ LBD (alone or ligand bound)
# T1 construct: 6× His tag with TEV recognition site (N, cleaved yes); made in house; host or cells: E. coli BL21 (DE3) gold
# T1 sequence (P37231 230-505): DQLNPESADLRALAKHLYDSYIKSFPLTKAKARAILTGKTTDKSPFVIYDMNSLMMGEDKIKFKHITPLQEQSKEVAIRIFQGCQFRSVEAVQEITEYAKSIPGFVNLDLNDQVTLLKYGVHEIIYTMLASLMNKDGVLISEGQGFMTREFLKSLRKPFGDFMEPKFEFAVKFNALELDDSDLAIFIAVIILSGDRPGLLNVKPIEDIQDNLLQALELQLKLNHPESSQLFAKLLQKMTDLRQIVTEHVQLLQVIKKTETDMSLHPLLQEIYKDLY
# Protocol: (§1) These samples were then plated as usual.
# [2] = target: T2, PPARγ LBD (wt) / NCoR CoRNR box peptide (Homo sapiens, UniProt P37231); experiment: Fluorescence anisotropy, NCoR peptide to wt PPARγ LBD (alone or ligand bound)
# T2 construct: 6× His tag with TEV recognition site (N, cleaved yes); made in house; host or cells: E. coli BL21 (DE3) gold
# T2 sequence (P37231 230-505): T1 sequence (P37231 230-505)
# Protocol: as §1
# [3] = system: PPARγ LBD, deletion of helix 12 / SMRT peptide; experiment: Fluorescence anisotropy, SMRT peptide to helix 12 deleted (DH12) PPARγ LBD
# Protocol: as §1
# [4] = target: T3, N340A PPARγ LBD / SMRT peptide (Homo sapiens, UniProt P37231, N340A); experiment: Fluorescence anisotropy, SMRT peptide to N340A PPARγ LBD
# T3 construct: 6× His tag with TEV recognition site (N, cleaved yes); made in house; host or cells: E. coli BL21 (DE3) gold
# T3 sequence (P37231 230-505 N340A): T1 sequence (P37231 230-505) with N111A
# Protocol: as §1
# [5] = target: T4, N340A PPARγ LBD / NCoR peptide (Homo sapiens, UniProt P37231, N340A); experiment: Fluorescence anisotropy, NCoR peptide to N340A PPARγ LBD; settings: read-out: NCoR dissociation constant average, N340A; Supp. Fig. 11
# T4 construct: 6× His tag with TEV recognition site (N, cleaved yes); made in house; host or cells: E. coli BL21 (DE3) gold
# Protocol: as §1
# [6] = target: T5, K329A PPARγ LBD / NCoR peptide (Homo sapiens, UniProt P37231, K329A); experiment: Fluorescence anisotropy, NCoR peptide to K329A PPARγ LBD; settings: read-out: NCoR dissociation constant average, K329A; Supp. Fig. 11
# T5 construct: 6× His tag with TEV recognition site (N, cleaved yes); made in house; host or cells: E. coli BL21 (DE3) gold
# Protocol: as §1
smiles,measurement,setting,value
O=C(Nc1ccccc1)c1cc([N+](=O)[O-])ccc1Cl [GW9662],effect on coactivator LxxLL box peptide affinity,"[1]; Supp. Table 9 summary, comparator apo",no effect
same,Kd,"[1]; read-out: MED1 Kd, wt, Supp. Table 2, wt values not from the same experiment as PPARγC313A,Q322C-BTFA (first wt column)",4220 nM
same,Kd,"[1]; read-out: MED1 WT Kd, Supp. Table 1, wt PPARγ LBD, FITC peptide 50 nM, fluorescence anisotropy, pH 7.4, 2 h room temperature",4900 nM
same,"NCoR Kd mean difference ±SE, Apo vs ligand","[2]; Supp. Table 3, wt, one-way ANOVA, Dunnett's, 11 df",150 ±39
same,effect on corepressor CoRNR box peptide affinity,"[2]; Supp. Table 9 summary, NCoR and SMRT, comparator apo",é
same,Kd,"[2]; read-out: NCoR Kd, wt, Supp. Table 2, wt values not from the same experiment as PPARγC313A,Q322C-BTFA (first wt column)",273 nM
same,Kd,"[2]; read-out: NCoR Kd, WT, ligand-bound, run 1",219 nM
same,Kd,"[2]; read-out: NCoR Kd, WT, ligand-bound, run 2",157 nM
same,Kd,"[2]; read-out: NCoR WT Kd, Supp. Table 1, wt PPARγ LBD, FITC peptide 50 nM, fluorescence anisotropy, pH 7.4, 2 h room temperature, average of two technical replicates",420 nM
same,Kd,"[2]; read-out: NCoR dissociation constant average, wt, Supp. Fig. 11",255 nM
same,effect on affinity/recruitment of NCoR CoRNR peptide,[2]; versus apo,increase affinity
same,"SMRT Kd, wt vs DH12 mean difference ± SE",[3]; Supp. Fig. 12,314 ±631
same,Kd,"[3]; Supp. Fig. 12, read-out: SMRT dissociation constant average, DH12",320 nM
same,Kd,"[3]; run SMRT FP 4 5 18, read-out: SMRT dissociation constant, DH12",361 nM
same,Kd,"[3]; run SMRT FP 4 6 18, read-out: SMRT dissociation constant, DH12",301 nM
same,Kd,"[3]; run SMRT FP 4 10 18, read-out: SMRT dissociation constant, DH12",298 nM
same,"SMRT Kd, wt vs N340A mean difference ± SE",[4]; Supp. Fig. 12,-323 ±631
same,Kd,"[4]; Supp. Fig. 12, read-out: SMRT dissociation constant average, N340A",957 nM
same,Kd,"[4]; run SMRT FP 4 5 18, read-out: SMRT dissociation constant, N340A",855 nM
same,Kd,"[4]; run SMRT FP 4 6 18, read-out: SMRT dissociation constant, N340A",1200 nM
same,Kd,"[4]; run SMRT FP 4 10 18, read-out: SMRT dissociation constant, N340A",811 nM
same,Kd,[5],485 nM
same,Kd,[6],1820 nM
